Measured values: the NIST ThermoML archive (doi:10.1021/je020149l)
Numbers after ± are expanded uncertainties.

Key:
[1] = 293.15 K; 101.33 kPa; Liquid; Vibrating tube method
[2] = excess molar enthalpy (molar enthalpy of mixing); xn = mol fraction of the nth substance listed; conditions: 323.15 K, 101 kPa, Liquid, Flow calorimetry

CCO [ethanol]
Conditions | mass density [kg/m3]
[1] | 789.29 ± 0.25

C1CCCCC1 [cyclohexane]
Conditions | mass density [kg/m3]
[1] | 778.56 ± 0.25

CC(C)=O [acetone] + CCO
[2]
Conditions | excess molar enthalpy [kcal/mol]
x2 = 0.05 | 0.0609 ± 0.00167
x2 = 0.102 | 0.115 ± 0.00263
x2 = 0.15 | 0.156 ± 0.00335
x2 = 0.2 | 0.192 ± 0.0043
x2 = 0.252 | 0.222 ± 0.00478
x2 = 0.3 | 0.243 ± 0.00526
x2 = 0.352 | 0.259 ± 0.0055
x2 = 0.4 | 0.269 ± 0.00574
x2 = 0.452 | 0.273 ± 0.00598
x2 = 0.501 | 0.272 ± 0.00574
x2 = 0.551 | 0.265 ± 0.00574
x2 = 0.6 | 0.255 ± 0.0055
x2 = 0.65 | 0.24 ± 0.00526
x2 = 0.702 | 0.22 ± 0.00478
x2 = 0.752 | 0.196 ± 0.0043
x2 = 0.8 | 0.168 ± 0.00359
x2 = 0.85 | 0.134 ± 0.00311
x2 = 0.901 | 0.0937 ± 0.00215
x2 = 0.95 | 0.0504 ± 0.00143

CCCCCCCC [octane]
Conditions | mass density [kg/m3]
[1] | 702.87 ± 0.41

CCCO [propan-1-ol]
Conditions | mass density [kg/m3]
[1] | 803.63 ± 0.43

CC(C)=O [acetone]
Conditions | mass density [kg/m3]
[1] | 790.31 ± 0.25

CC(C)=O [acetone] + CCCO
[2]
Conditions | excess molar enthalpy [kcal/mol]
x2 = 0.025 | 0.0605 ± 0.00191
x2 = 0.052 | 0.0968 ± 0.00239
x2 = 0.101 | 0.154 ± 0.00359
x2 = 0.151 | 0.202 ± 0.00454
x2 = 0.2 | 0.245 ± 0.00526
x2 = 0.252 | 0.282 ± 0.00598
x2 = 0.302 | 0.311 ± 0.00669
x2 = 0.351 | 0.334 ± 0.00717
x2 = 0.401 | 0.349 ± 0.00741
x2 = 0.451 | 0.359 ± 0.00765
x2 = 0.501 | 0.363 ± 0.00765
x2 = 0.551 | 0.361 ± 0.00765
x2 = 0.601 | 0.354 ± 0.00765
x2 = 0.651 | 0.34 ± 0.00717
x2 = 0.702 | 0.32 ± 0.00693
x2 = 0.752 | 0.295 ± 0.00645
x2 = 0.8 | 0.265 ± 0.00574
x2 = 0.851 | 0.223 ± 0.00478
x2 = 0.901 | 0.168 ± 0.00382
x2 = 0.952 | 0.112 ± 0.00263
x2 = 0.975 | 0.0803 ± 0.00215

CCCCCCC [heptane] + CCCO
[2]
Conditions | excess molar enthalpy [kcal/mol]
x2 = 0.01 | 0.0963 ± 0.00382
x2 = 0.024 | 0.142 ± 0.00406
x2 = 0.034 | 0.161 ± 0.00382
x2 = 0.053 | 0.188 ± 0.00406
x2 = 0.103 | 0.229 ± 0.00502
x2 = 0.154 | 0.254 ± 0.0055
x2 = 0.203 | 0.269 ± 0.00574
x2 = 0.254 | 0.279 ± 0.00598
x2 = 0.301 | 0.283 ± 0.00598
x2 = 0.353 | 0.282 ± 0.00598
x2 = 0.402 | 0.277 ± 0.00598
x2 = 0.451 | 0.27 ± 0.00574
x2 = 0.503 | 0.26 ± 0.0055
x2 = 0.551 | 0.247 ± 0.00526
x2 = 0.602 | 0.232 ± 0.00502
x2 = 0.651 | 0.214 ± 0.00454
x2 = 0.702 | 0.195 ± 0.0043
x2 = 0.75 | 0.174 ± 0.00382
x2 = 0.801 | 0.147 ± 0.00311
x2 = 0.851 | 0.124 ± 0.00263
x2 = 0.901 | 0.0987 ± 0.00215
x2 = 0.951 | 0.0717 ± 0.00167

CCCCCCCC [octane] + CCO
[2]
Conditions | excess molar enthalpy [kcal/mol]
x2 = 0.028 | 0.206 ± 0.00478
x2 = 0.054 | 0.257 ± 0.00574
x2 = 0.104 | 0.303 ± 0.00645
x2 = 0.151 | 0.326 ± 0.00693
x2 = 0.201 | 0.343 ± 0.00741
x2 = 0.252 | 0.355 ± 0.00765
x2 = 0.304 | 0.357 ± 0.00765
x2 = 0.352 | 0.355 ± 0.00765
x2 = 0.404 | 0.348 ± 0.00741
x2 = 0.452 | 0.337 ± 0.00717
x2 = 0.502 | 0.323 ± 0.00693
x2 = 0.551 | 0.307 ± 0.00669
x2 = 0.601 | 0.288 ± 0.00621
x2 = 0.651 | 0.267 ± 0.00574
x2 = 0.7 | 0.245 ± 0.00526
x2 = 0.752 | 0.217 ± 0.00478
x2 = 0.801 | 0.191 ± 0.00406
x2 = 0.85 | 0.16 ± 0.00359
x2 = 0.901 | 0.121 ± 0.00263
x2 = 0.95 | 0.0813 ± 0.00191

CCCCCCCC [octane] + CCCO
[2]
Conditions | excess molar enthalpy [kcal/mol]
x2 = 0.027 | 0.202 ± 0.00478
x2 = 0.053 | 0.254 ± 0.00574
x2 = 0.103 | 0.31 ± 0.00669
x2 = 0.15 | 0.337 ± 0.00717
x2 = 0.208 | 0.359 ± 0.00765
x2 = 0.254 | 0.367 ± 0.00789
x2 = 0.301 | 0.37 ± 0.00789
x2 = 0.352 | 0.367 ± 0.00789
x2 = 0.401 | 0.363 ± 0.00765
x2 = 0.452 | 0.351 ± 0.00741
x2 = 0.5 | 0.337 ± 0.00717
x2 = 0.55 | 0.32 ± 0.00693
x2 = 0.602 | 0.297 ± 0.00645
x2 = 0.652 | 0.268 ± 0.00574
x2 = 0.702 | 0.242 ± 0.00526
x2 = 0.752 | 0.214 ± 0.00454
x2 = 0.802 | 0.181 ± 0.00406
x2 = 0.852 | 0.148 ± 0.00335
x2 = 0.901 | 0.106 ± 0.00239
x2 = 0.95 | 0.0784 ± 0.00191

C1CCCCC1 [cyclohexane] + CCO
[2]
Conditions | excess molar enthalpy [kcal/mol]
x2 = 0.032 | 0.106 ± 0.00263
x2 = 0.054 | 0.132 ± 0.00311
x2 = 0.102 | 0.169 ± 0.00359
x2 = 0.151 | 0.192 ± 0.00406
x2 = 0.202 | 0.207 ± 0.00454
x2 = 0.251 | 0.217 ± 0.00478
x2 = 0.3 | 0.223 ± 0.00478
x2 = 0.351 | 0.226 ± 0.00478
x2 = 0.401 | 0.226 ± 0.00478
x2 = 0.452 | 0.223 ± 0.00478
x2 = 0.5 | 0.217 ± 0.00478
x2 = 0.551 | 0.209 ± 0.00454
x2 = 0.601 | 0.198 ± 0.0043
x2 = 0.65 | 0.185 ± 0.00406
x2 = 0.707 | 0.165 ± 0.00359
x2 = 0.75 | 0.15 ± 0.00335
x2 = 0.802 | 0.127 ± 0.00287
x2 = 0.851 | 0.101 ± 0.00239
x2 = 0.901 | 0.0722 ± 0.00167
x2 = 0.951 | 0.038 ± 0.0012

CCCCCCC [heptane]
Conditions | mass density [kg/m3]
[1] | 683.91 ± 0.4
